One assay deals with T1, MMP-2 (Homo sapiens, UniProt P08253).
T1 sequence (P08253 110-660): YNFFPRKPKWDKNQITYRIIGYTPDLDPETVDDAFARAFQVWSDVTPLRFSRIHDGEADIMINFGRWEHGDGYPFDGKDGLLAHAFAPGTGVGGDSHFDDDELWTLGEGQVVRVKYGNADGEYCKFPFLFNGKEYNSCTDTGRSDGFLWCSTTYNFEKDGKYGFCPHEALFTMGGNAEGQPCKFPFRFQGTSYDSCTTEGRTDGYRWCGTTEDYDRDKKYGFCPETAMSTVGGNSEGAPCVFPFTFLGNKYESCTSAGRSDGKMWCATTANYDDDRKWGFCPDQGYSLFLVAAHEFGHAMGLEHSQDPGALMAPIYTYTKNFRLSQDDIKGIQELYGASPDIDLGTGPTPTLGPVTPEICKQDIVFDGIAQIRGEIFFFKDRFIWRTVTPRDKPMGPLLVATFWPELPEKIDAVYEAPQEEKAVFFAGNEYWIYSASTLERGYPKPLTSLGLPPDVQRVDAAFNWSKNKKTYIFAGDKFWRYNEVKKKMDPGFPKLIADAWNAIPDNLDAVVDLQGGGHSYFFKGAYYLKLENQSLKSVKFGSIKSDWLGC
The assay can be described thus: In vitro metalloprotease inhibition, fluorogenic peptide assay. In kind it is biochemical. To be noted: MCA peptide substrate 4 μM, room temperature, pH 7.5. The method, then:
(§1) Briefly, 4-aminophenylmercuric acetate (APMA) or trypsin activated MMPs were incubated with various concentrations of the inhibitor compound at room temperature for 5 minutes.
(§2) MCA-ProLeuGlyLeuDpaAlaArgNH^2, wherein MCA is methoxycoumarin and Dpa is 3-(2,4-dinitrophenyl)-L-2,3-diaminopropionyl alanine.
(§3) The buffer used for assays contained 100 mM Tris-HCl, 100 mM NaCl, 10 mM CaCl2 and 0.05 percent polyethyleneglycol (23) lauryl ether at a pH value of 7.5.

A further assay concerns the target MMP-8 (Homo sapiens, UniProt P22894). Described as above. Format: biochemical. As to conditions: MCA peptide substrate 4 μM, room temperature, pH 7.5. As for the experimental part: as §1, §2, §3
In another assay the target is MMP-3 (Homo sapiens, UniProt P08254). The assay is described as above. Format: biochemical. As to conditions: MCA peptide substrate 4 μM, room temperature, pH 7.5. As for the experimental part: as §1, §2, §3
A further assay deals with MMP-9 (Homo sapiens, UniProt P14780). Described as above. In kind it is biochemical. To be noted: MCA peptide substrate 4 μM, room temperature, pH 7.5. As for the experimental part:
as §1, §2, §3

The test system of assay [1] is angiogenesis in the cornea of a mouse. The assay can be described thus: In vivo angiogenesis assay (corneal micropocket assay). Further details: species or system mouse (C57Bl/6). To be noted: area of corneal neovascularization, bFGF pellet, dosed daily, scored at day five; exemplary dose 50 mg/kg bid, po. The method, then: The study of angiogenesis depends on a reliable and reproducible model for the stimulation and inhibition of a neovascular response. The corneal micropocket assay provides such a model of angiogenesis in the cornea of a mouse. See, A Model of Angiogenesis in the Mouse Cornea; Kenyon, B M, et al., Investigative Ophthalmology & Visual Science, Jul.
In this assay, uniformly sized Hydron™ pellets containing bFGF and sucralfate were prepared and surgically implanted into the stroma mouse cornea adjacent to the temporal limbus. The pellets were formed by making a suspension of 20 μL sterile saline containing […] recombinant bFGF, 10 mg of sucralfate and 10 μL of 12 percent Hydron™ in ethanol. The slurry was then deposited on a 10×10 mm piece of sterile nylon mesh. After drying, the nylon fibers of the mesh were separated to release the pellets.
The corneal pocket was made by anesthetizing a 7 week old C57Bl/6 female mouse, then proptosing the eye with a jeweler's forceps. Using a dissecting microscope, a central, intrastromal linear keratotomy of approximately 0.6 mm in length was performed with a #15 surgical blade, parallel to the insertion of the lateral rectus muscle. Using a modified cataract knife, a lamellar micropocket was dissected toward the temporal limbus. The pocket was extended to within 1.0 mm of the temporal limbus. A single pellet was placed on the corneal surface at the base of the pocket with a jeweler's forceps. The pellet was then advanced to the temporal end of the pocket. Antibiotic ointment was then applied to the eye.
Mice were dosed on a daily basis for the duration of the assay. Dosing of the animals was based on bioavailability and overall potency of the compound. An exemplary dose is 50 mg/kg bid, po. Neovascularization of the corneal stroma begins at about day three and was permitted to continue under the influence of the assayed compound until day five. At day five, the degree of angiogenic inhibition was scored by viewing the neovascular progression with a slit lamp microscope.
The mice were anesthetized and the studied eye was once again proptosed. The maximum vessel length of neovascularization, extending from the limbal vascular plexus toward the pellet was measured. In addition, the contiguous circumferential zone of neovascularization was measured as clock hours, where 30 degrees of arc equals one clock hour. The area of angiogenesis was calculated as follows. [formula]
The studied mice were thereafter compared to control mice and the difference in the area of neovascularization was recorded.

In the next assay the target is T2, recombinant human MMP-1 (Homo sapiens, UniProt P03956).
T2 construct: made in house; host or cells: transfected HT-1080 cells
T2 sequence (P03956 100-469): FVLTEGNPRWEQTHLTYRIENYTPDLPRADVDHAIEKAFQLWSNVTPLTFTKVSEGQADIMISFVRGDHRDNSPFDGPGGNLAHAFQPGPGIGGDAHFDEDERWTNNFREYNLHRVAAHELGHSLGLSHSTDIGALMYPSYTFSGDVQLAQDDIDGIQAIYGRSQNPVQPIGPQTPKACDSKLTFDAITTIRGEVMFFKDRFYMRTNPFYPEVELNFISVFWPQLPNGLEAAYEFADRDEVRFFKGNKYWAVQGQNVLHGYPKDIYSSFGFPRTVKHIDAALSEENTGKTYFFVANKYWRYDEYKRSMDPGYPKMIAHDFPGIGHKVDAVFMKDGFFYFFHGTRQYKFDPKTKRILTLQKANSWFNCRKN
The assay can be described thus: In vitro metalloprotease inhibition, fluorogenic peptide assay. As to conditions: APMA-activated enzyme, MCA peptide substrate 4 μM, room temperature, pH 7.5. Format: biochemical. As for the experimental part:
as §1
(§4) More specifically, recombinant human MMP-13 and MMP-1 enzymes were prepared in laboratories of the assignee. MMP-13 was expressed in baculovirus as a proenzyme, and purified first over a heparin agarose column and then over a chelating zinc chloride column. The proenzyme was activated by APMA for use in the assay. MMP-1 expressed in transfected HT-1080 cells was provided by Dr. Howard Welgus of Washington University, St. Louis, Mo. The enzyme was also activated using APMA and was then purified over a hydroxamic acid column.
as §2, §3

Another assay has as its target T3, recombinant human MMP-13 (Homo sapiens, UniProt P45452).
T3 construct: made in house
Described as above. In kind it is biochemical. As to conditions: for IC50: APMA-activated enzyme, MCA peptide substrate 4 μM, room temperature, pH 7.5. The method, then: as §1, §4, §2, §3

SMILES strings stand for the structures.

MMP-3, sequence (P08254 100-477, species assumed): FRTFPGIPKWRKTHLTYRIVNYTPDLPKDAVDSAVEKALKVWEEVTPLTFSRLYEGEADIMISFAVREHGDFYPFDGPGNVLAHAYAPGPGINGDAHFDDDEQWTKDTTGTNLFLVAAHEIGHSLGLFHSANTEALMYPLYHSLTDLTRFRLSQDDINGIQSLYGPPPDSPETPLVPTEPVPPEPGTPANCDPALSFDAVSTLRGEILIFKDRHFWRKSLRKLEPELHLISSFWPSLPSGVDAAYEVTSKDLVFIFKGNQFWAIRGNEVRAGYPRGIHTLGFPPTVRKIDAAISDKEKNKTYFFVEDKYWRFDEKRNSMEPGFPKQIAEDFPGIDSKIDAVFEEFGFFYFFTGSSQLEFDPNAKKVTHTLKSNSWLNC
MMP-8, sequence (P22894 101-467, species assumed): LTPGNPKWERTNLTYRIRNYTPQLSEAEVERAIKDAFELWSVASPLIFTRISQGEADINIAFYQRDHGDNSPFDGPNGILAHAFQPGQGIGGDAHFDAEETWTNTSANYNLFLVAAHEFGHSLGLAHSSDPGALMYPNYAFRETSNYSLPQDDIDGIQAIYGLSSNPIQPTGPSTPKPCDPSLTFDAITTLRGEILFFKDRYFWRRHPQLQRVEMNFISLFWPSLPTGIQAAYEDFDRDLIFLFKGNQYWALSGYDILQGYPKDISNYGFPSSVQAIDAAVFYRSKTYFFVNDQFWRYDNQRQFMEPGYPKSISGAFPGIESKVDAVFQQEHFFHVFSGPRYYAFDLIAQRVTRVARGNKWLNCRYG
MMP-9, sequence (P14780 107-707 limits assumed, species assumed): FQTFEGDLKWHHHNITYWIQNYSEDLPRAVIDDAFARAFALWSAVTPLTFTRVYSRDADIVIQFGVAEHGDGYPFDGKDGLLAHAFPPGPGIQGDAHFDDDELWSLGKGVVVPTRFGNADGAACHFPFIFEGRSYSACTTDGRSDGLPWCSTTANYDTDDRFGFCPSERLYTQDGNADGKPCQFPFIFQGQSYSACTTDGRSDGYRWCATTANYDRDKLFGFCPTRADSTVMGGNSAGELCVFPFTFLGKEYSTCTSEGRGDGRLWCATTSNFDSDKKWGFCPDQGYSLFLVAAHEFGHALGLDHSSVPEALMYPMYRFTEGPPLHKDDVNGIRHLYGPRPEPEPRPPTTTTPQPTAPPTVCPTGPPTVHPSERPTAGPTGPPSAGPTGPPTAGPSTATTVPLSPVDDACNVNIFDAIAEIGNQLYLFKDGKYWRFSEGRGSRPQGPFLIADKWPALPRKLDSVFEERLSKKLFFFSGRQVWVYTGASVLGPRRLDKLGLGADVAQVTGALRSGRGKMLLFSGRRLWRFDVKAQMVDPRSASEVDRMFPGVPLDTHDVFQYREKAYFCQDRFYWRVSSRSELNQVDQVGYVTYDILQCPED

On to `CC(O)(CS(=O)(=O)c1ccc(Oc2ccccc2)cc1)C(=O)NO` (stereo not shown) [Example 1, N,2-dihydroxy-2-methyl-3-[(4-phenoxyphenyl)sulfonyl]propanamide], for which the IC50 (usually the midpoint of a concentration-inhibition curve) came to 0.5 nM at MMP-2; 2.5 nM against MMP-8; 30 nM at MMP-3; 4.8 nM against MMP-9; 1100 nM at recombinant human MMP-1; 1.1 nM on recombinant human MMP-13. Also, the “Percentage of Control” value in assay [1] was found to be 51.9%.
`C[C@@](O)(CS(=O)(=O)c1ccc(Oc2ccccc2)cc1)C(=O)NO` [Example 1A, (S)—N,2-dihydroxy-2-methyl-3-[(4-phenoxyphenyl)sulfonyl]propanamide]: the IC50 on MMP-2 turned out to be 0.39 nM; against MMP-9, 1.7 nM; on recombinant human MMP-1 it was 1010 nM; at recombinant human MMP-13 it was 0.75 nM. Further, the “Percentage of Control” value in assay [1] came out at 62.7%. In addition, the “ratio of inhibition of MMP-1 to inhibition of MMP-13, relative to the compound of opposite configuration” value at recombinant human MMP-13 (Example 1A versus Example 1B) is “about 2 times”.
Consider `C[C@](O)(CS(=O)(=O)c1ccc(Oc2ccccc2)cc1)C(=O)NO` [Example 1B, (R)—N,2-dihydroxy-2-methyl-3-[(4-phenoxyphenyl)sulfonyl]-propanamide], for which the half-maximal inhibitory concentration (IC50) is 11 nM against MMP-2, 328 nM against MMP-9, more than 10000 nM at recombinant human MMP-1 and 21.5 nM on recombinant human MMP-13. Further, in assay [1], the “Percentage of Control” value came to 49.3%.
Turning to `O=C(NO)C(O)(CO)CS(=O)(=O)c1ccc(Oc2ccccc2)cc1` (stereo not shown) [Example 2, N,2-dihydroxy-2-(hydroxymethyl)-3-[(4-phenoxyphenyl)-sulfonyl]propanamide], the IC50 stood at 1 nM at MMP-2; 4.1 nM on MMP-8; 44 nM against MMP-3; 7 nM at MMP-9; 470 nM at recombinant human MMP-1; 1.2 nM at recombinant human MMP-13. In addition, the “Percentage of Control” value in assay [1] was found to be 53.4%.
`Cl.O=C(NO)C(O)(CN1CCOCC1)CS(=O)(=O)c1ccc(Oc2ccccc2)cc1` (stereo not drawn) [Example 3, N,α-dihydroxy-α-[[(4-phenoxyphenyl)sulfonyl]methyl]-4-morpholinepropanamide, monohydrochloride]: the IC50 was determined as 1 nM against MMP-2; 4 nM at MMP-8; 166 nM against MMP-3; 20 nM against MMP-9; 6000 nM at recombinant human MMP-1; 3 nM at recombinant human MMP-13. Further, in assay [1], the “Percentage of Control” value came to 77.4%.
For `Cc1ccc(Oc2ccc(S(=O)(=O)CC(O)(CO)C(=O)NO)cc2)cc1C` (stereo not shown) [Example 4, 3-[[4-(3,4-dimethylphenoxy)phenyl]sulfonyl]-N,2-dihydroxy-2-(hydroxymethyl)propanamide], the IC50 against MMP-2 came to 0.4 nM; at MMP-8, 4.5 nM; against MMP-3 it was 48.5 nM; against MMP-9, 12.4 nM; on recombinant human MMP-1, 9000 nM; at recombinant human MMP-13 it was 0.4 nM. The “Percentage of Control” value in assay [1] is given as 65.2%.
Regarding `Cc1ccc(Oc2ccc(S(=O)(=O)CC(C)(O)C(=O)NO)cc2)cc1C` (stereo not shown) [Example 5, 3-[[4-(3,4-dimethylphenoxy)phenyl]sulfonyl]-N,2-dihydroxy-2-methylpropanamide], the IC50 on MMP-2 is 2.4 nM; against MMP-8, 2.5 nM; on MMP-3, 26.8 nM; against MMP-9, 3.4 nM; on recombinant human MMP-1 it was more than 10000 nM; at recombinant human MMP-13, 1.3 nM. Further, the “Percentage of Control” value in assay [1] is reported as 57.8%.
For the compound `Cc1ccc(Oc2ccc(S(=O)(=O)CC(O)(CN3CCOCC3)C(=O)NO)cc2)cc1C` (stereo not drawn) [Example 7, α-[[[4-(3,4-dimethylphenoxy)-phenyl]sulfonyl]methyl]-N-2-dihydroxy-4-morpholineproanamide], the IC50 at MMP-2 is 2 nM; against MMP-8, 4 nM; against MMP-3 it was 51.8 nM; against MMP-9, 13 nM; at recombinant human MMP-1, more than 10000 nM; on recombinant human MMP-13, 2.1 nM.
On to `O=C(NO)C(O)CS(=O)(=O)c1ccc(Oc2ccccc2)cc1` (stereo not shown) [Example 9], for which the 50% inhibitory concentration (IC50) is 0.4 nM against MMP-2, 16 nM on MMP-9, 3000 nM at recombinant human MMP-1 and 0.2 nM on recombinant human MMP-13. In assay [1], the “Percentage of Control” value is listed as 61.1%. Further, the “inhibitory activity against MMP-13 (in words)” value on recombinant human MMP-13 (discussion of Table 51) was “excellent activity”.
Regarding `O=C(NO)[C@H](O)CS(=O)(=O)c1ccc(Oc2ccccc2)cc1` [Example 11, (S)—N,2-dihydroxy-3-[(4-phenoxyphenyl)sulfonyl]propanamide], the IC50 was 7 nM against MMP-2, 66 nM against MMP-9, 7000 nM at recombinant human MMP-1 and 5 nM on recombinant human MMP-13.
As for `O=C(NO)C(O)CS(=O)(=O)c1ccc(Sc2ccccc2)cc1` (stereo not shown) [Example 12, N,2-dihydroxy-3-[[4-(phenylthio)phenyl]sulfonyl]propanamide], the IC50 at MMP-2 is 2 nM; against MMP-9, 175 nM; on recombinant human MMP-1 it was more than 10000 nM; on recombinant human MMP-13, 3.7 nM.
In the same order, the values of `O=C(NO)C(O)(CO)CS(=O)(=O)c1ccc(Sc2ccccc2)cc1` (stereo not shown) [Example 13] are 2.3 nM, 70 nM, more than 10000 nM and 5 nM.
Consider `CC(O)(CS(=O)(=O)c1ccc(NC(=O)c2ccccc2)cc1)C(=O)NO` (stereo not shown) [Example 16, N-[4-[[2-hydroxy-3-(hydroxyamino)-2-methyl-3-oxopropyl]-sulfonyl]phenyl]benzamide], for which the IC50 at MMP-2 is 0.8 nM; against MMP-9, 1160 nM; on recombinant human MMP-1 it was more than 10000 nM; on recombinant human MMP-13, 110 nM. Also, in assay [1], the “Percentage of Control” value came to 41.6%.
Turning to `O=C(Nc1ccc(S(=O)(=O)CC(O)C(=O)NO)cc1)c1ccccc1` (stereo not shown) [Example 23, N-[4-[[2-hydroxy-3-(hydroxyamino)-3-oxopropyl]sulfonyl]phenyl]benzamide], the IC50 on MMP-2 is 2.8 nM; against MMP-9 it was 1330 nM; at recombinant human MMP-1, more than 10000 nM; on recombinant human MMP-13, 220 nM.
